Assay results published in US6737383B1, “Herbicidal oxadiazolidines” (priority 1999, dated 2004).

What was measured:
[1] = system: bedstraw; assay: Test B pre/postemergence bedstraw; format: in vivo, Galium aparine
Summary of the method: (§1)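 Herbicidal effect was estimated by eye on a ten-point control scale after plants spent twelve to sixteen days in a greenhouse following soil or foliar treatment. Foliar sprays targeted plants at one to four leaves; all doses were formulated in a non-phytotoxic solvent with surfactant.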

[2] = system: duck salad; assay: Test B flood test duck salad; format: in vivo, Heteranthera limosa; settings: for Plant response rating, Ducksalad (0 to 10 scale, 0 is no effect, 10 is complete control) / Ducksalad plant response rating (0 to 10 scale, 0 is no effect, 10 is complete control): flood test species, visual evaluation after twelve to sixteen days; for Ducksalad plant response rating (0 to 10 scale, 0 is no effect, 10 is complete control): under heading Pre-emergence
Summary of the method: (§2)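 Each value is a visual injury score relative to controls, with 10 meaning complete control and 0 no effect. Evaluation took place twelve to sixteen days after the 2-leaf-stage plants were treated and kept in the greenhouse.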

[3] = system: rice; assay: Test B flood test rice; format: in vivo, Oryza sativa; settings: for Plant response rating, Rice (0 to 10 scale, 0 is no effect, 10 is complete control) / Rice plant response rating (0 to 10 scale, 0 is no effect, 10 is complete control): flood test species, visual evaluation after twelve to sixteen days; for Rice plant response rating (0 to 10 scale, 0 is no effect, 10 is complete control): under heading Pre-emergence
Summary of the method: as §2

[4] = system: wheat; assay: Test B pre/postemergence wheat; format: in vivo, Triticum aestivum
Summary of the method: as §1

[5] = Preemergence, Rate 62 g/ha, scale 0 to 10 (0 no effect, 10 complete control)
[6] = Preemergence, Rate 125 g/ha, scale of 0 to 10 where 0 is no effect and 10 is complete control
[7] = Preemergence, Rate 250 g/ha, scale 0 to 10 (0 no effect, 10 complete control)
[8] = Rate 250 g/ha, Pre-emergence (flood test species), scale 0 to 10, 0 is no effect, 10 is complete control
[9] = Rate 500 g/ha, Pre-emergence section of Table B, 0 to 10 scale (0 no effect, 10 complete control)
[10] = Postemergence, Rate 62 g/ha, scale 0 to 10, 0 is no effect, 10 is complete control
[11] = Postemergence, Rate 125 g/ha, scale of 0 to 10 where 0 is no effect and 10 is complete control
[12] = Preemergence, Rate 500 g/ha, scale of 0 to 10 where 0 is no effect and 10 is complete control
[13] = Rate 500 g/ha, Postemergence, scale 0 to 10, 0 is no effect, 10 is complete control
[14] = Preemergence, Rate 250 g/ha, scale 0 (no effect) to 10 (complete control)
[15] = Rate 62 g/ha, Preemergence, scale 0 to 10
[16] = Rate 500 g/ha, Preemergence, scale 0 to 10 (0 no effect, 10 complete control)
[17] = Pre-emergence, Rate 62 g/ha, scale 0 to 10, 0 is no effect, 10 is complete control
[18] = Rate 125 g/ha, Pre-emergence section (flood test species), scale 0 to 10, 0 no effect, 10 complete control
[19] = Rate 250 g/ha, Postemergence, scale 0 to 10, 0 is no effect, 10 is complete control

COCCn1c(=O)on(C(=O)N(c2ccccc2)C(C)C)c1=O [Compound 631]
2: Plant response rating, Wheat [4, 11]
9: Plant response rating, Wheat [4, 12]
8: Plant response rating, Wheat [4, 7]
6: Wheat plant response rating ([4]; Postemergence, Rate 250 g/ha, scale of 0 to 10, 0 is no effect, 10 is complete control)
0: Bedstraw plant response rating [1, 5] | Bedstraw plant response rating [1, 6] | Plant response rating, Bedstraw [1, 7] | Plant response rating, Ducksalad (0 to 10 scale, 0 is no effect, 10 is complete control) ([2]; Rate 62 g/ha, Pre-emergence) | Ducksalad plant response rating (0 to 10 scale, 0 is no effect, 10 is complete control) ([2]; Rate 125 g/ha) | Ducksalad plant response rating [2, 8] | Ducksalad plant response rating [2, 9] | Plant response rating, Rice (0 to 10 scale, 0 is no effect, 10 is complete control) ([3]; Rate 62 g/ha, Pre-emergence) | Rice plant response rating (0 to 10 scale, 0 is no effect, 10 is complete control) ([3]; Rate 125 g/ha) | Rice plant response rating [3, 8] | Rice plant response rating [3, 9] | Plant response rating, Wheat [4, 10] | Wheat plant response rating [4, 5]
3: Wheat plant response rating [4, 6]

CC(C)N(C(=O)n1oc(=O)n(CCF)c1=O)c1ccc(Cl)cc1 [Compound 668]
7: Plant response rating, Wheat [4, 12]
5: Plant response rating, Wheat [4, 7]
0: Bedstraw plant response rating [1, 11] | Plant response rating, Ducksalad (0 to 10 scale, 0 is no effect, 10 is complete control) ([2]; Rate 62 g/ha, Pre-emergence) | Ducksalad plant response rating (0 to 10 scale, 0 is no effect, 10 is complete control) ([2]; Rate 125 g/ha) | Ducksalad plant response rating [2, 8] | Ducksalad plant response rating [2, 9] | Plant response rating, Rice (0 to 10 scale, 0 is no effect, 10 is complete control) ([3]; Rate 62 g/ha, Pre-emergence) | Rice plant response rating (0 to 10 scale, 0 is no effect, 10 is complete control) ([3]; Rate 125 g/ha) | Rice plant response rating [3, 8] | Rice plant response rating [3, 9] | Plant response rating, Wheat [4, 10] | Wheat plant response rating [4, 11] | Wheat plant response rating ([4]; Preemergence, Rate 62 g/ha, scale of 0 to 10 where 0 is no effect and 10 is complete control) | Wheat plant response rating [4, 6] | Wheat plant response rating [4, 13]

CC(C)N(C(=O)n1oc(=O)n(CC2=NOCCO2)c1=O)c1ccc(Cl)cc1 [Compound 740]
4: Wheat plant response rating [4, 13]
3: Wheat plant response rating [4, 16]
0: Plant response rating, Bedstraw [1, 10] | Bedstraw plant response rating [1, 11] | Plant response rating, Bedstraw [1, 6] | Bedstraw plant response rating [1, 14] | Bedstraw plant response rating [1, 15] | Bedstraw plant response rating [1, 13] | Bedstraw plant response rating [1, 16] | Ducksalad plant response rating [2, 17] | Ducksalad plant response rating [2, 18] | Ducksalad plant response rating [2, 8] | Ducksalad plant response rating [2, 9] | Rice plant response rating [3, 17] | Rice plant response rating [3, 18] | Rice plant response rating [3, 8] | Rice plant response rating [3, 9] | Plant response rating, Wheat [4, 10] | Wheat plant response rating [4, 11] | Plant response rating, Wheat [4, 6] | Wheat plant response rating [4, 14] | Wheat plant response rating [4, 15] | Wheat plant response rating [4, 19]

CC(C)N(C(=O)n1oc(=O)n(CCN(C)C(=O)c2ccccc2)c1=O)c1ccc(F)cc1 [Compound 741]
5: Bedstraw plant response rating [1, 16]
4: Bedstraw plant response rating [1, 19] | Wheat plant response rating [4, 16]
0: Plant response rating, Bedstraw [1, 10] | Bedstraw plant response rating [1, 11] | Plant response rating, Bedstraw [1, 6] | Bedstraw plant response rating [1, 14] | Bedstraw plant response rating [1, 15] | Ducksalad plant response rating [2, 17] | Ducksalad plant response rating [2, 18] | Ducksalad plant response rating [2, 8] | Ducksalad plant response rating [2, 9] | Rice plant response rating [3, 17] | Rice plant response rating [3, 18] | Rice plant response rating [3, 8] | Rice plant response rating [3, 9] | Plant response rating, Wheat [4, 10] | Wheat plant response rating [4, 11] | Plant response rating, Wheat [4, 6] | Wheat plant response rating [4, 14] | Wheat plant response rating [4, 15] | Wheat plant response rating [4, 19]
9: Bedstraw plant response rating [1, 13]
3: Wheat plant response rating [4, 13]
